Earlier results in US8545896B2, “Compositions, kits and methods for nutrition supplementation” (Chemo S. A. France, priority 2011, dated 2013).

Conditions: intake of about 1000 IU per day, all adults

## C=C1CC[C@H](O)C/C1=C/C=C1\CCC[C@]2(C)[C@@H]([C@H](C)CCCC(C)C)CC[C@@H]12 [vitamin D3, cholecalciferol]
  share of the population brought up to the 30 ng/ml serum range for 25-hydroxyvitamin D: at least 50%
